Test results from patent US20070004650A1, “Endurance improving agent” (KAO CORPORATION, priority 2003, published 2007).

Tests used:
Assay type in all cases: cell-based, mouse
phospho-AMPK α (Thr72) = test: AMPK activation in Hepa 1-6 cells, phospho-AMPK α Western blot; conditions: for Phospho-AMPK α: 60 minutes, Hepa 1-6, band intensity relative to control = 100; for AMPK-activating effect (summary in words): Hepa 1-6, results of Tables 4 to 6
Experimental: (§1) Test 3 (AMPK Activating Effect of Catechins)
(§2) Using a mouse hepatocyte line (Hepa 1-6), activation of AMPK was assessed based on degrees of phosphorylation of AMPK and ACC (acetyl-CoA carboxylase) as indices.
The mouse hepatocyte line (Hepa 1-6) was seeded in a 25-cm^2 flask, and cultured in DMEM (+10% FBS, +antimicrobial agent) at 37° C. for 1 to 2 days. When the culture has become subconfluent, the medium was removed. After washed with PBS(−),DMEM(−FBS)was added as a replacement medium, followed by further culture for 1 day. Subsequent to removal of the medium, DMEM (−FBS) with catechins and a tea extract added at predetermined concentrations therein was added, followed by culture for 60 minutes. Subsequent to removal of the medium and washing with PBS (−), a lytic solution [10 mM Tris (pH 7.4), 50 mM NaCl, 30 mM sodium pyrophosphate, 0.5% Triton X-100, protease inhibitor cocktail (“SIGMA P2714”), phosphatase inhibitor cocktail-1 (“SIGMA P2850”), phosphatase inhibitor cocktail 1-2 (“SIGMA P5726”); 200 μL] was added, and a lysate was collected by a cell scraper. The thus-collected lysate was caused to pass three times through a syringe with 23 G needle so that the lysate was homogenized. The homogenized lysate was then allowed stand on ice for 30 minutes. The lysate was centrifuged at 15,000 rpm and at 4° C. for 15 minutes, and proteins in supernatant were provided for use in the following experiment.
After the concentration of the proteins in supernatant was measured, it was adjusted such that the protein concentration became identical among the samples. A ¼ volume of SDS buffer (250 mM Tris, 12.5% SDS, 20% glycerol) was added, followed by further addition of 2-mercaptoethanol and bromophenol blue. The resulting mixture was subjected to thermal denaturation at 95° C., and was then quenched at 4° C. to provide a sample for electrophoresis.
A predetermined amount (about 20 to 40 μg) of the sample for electrophoresis was subjected to SDS-PAGE (4 or 12% gel). After transferred onto a membrane, phospho-AMPK α (Thr72), phospho-AMPK β (Ser108) and phospho-ACC (Ser79) were detected using an anti-phospho-AMPK α antibody (product of Cell Signaling Technology, Inc.), an anti-phospho-AMPK β antibody (product of Cell Signaling Technology, Inc.) or an anti-phospho-ACC antibody (product of Cell Signaling Technology, Inc.) as a primary antibody, an anti-rabbit-HRP antibody (product of Amersham Biosciences, Inc.) as a secondary antibody, and a phototope-HRP Western detection system (product of Cell Signaling Technology, Inc.) as a detection reagent. The intensities of detected bands were converted into numerical values (pixels) by an image analysis (“EDAS 290 Image Analysis System”, Kodak Company). Supposing that the corresponding band intensities of the control (catechins non-added group) were 100, the numerical values (pixels) were indicated as relative values to the values of the control. It is to be noted that as catechin samples, products of SIGMA Corporation or Wako Pure Chemical Industries, Ltd. were used. As the tea extract (tea catechins), “TEAFURAN” (product of ITO EN, LTD.) as used.

phospho-AMPK β (Ser108) = test: AMPK activation in Hepa 1-6 cells, phospho-AMPK β Western blot; conditions: 60 minutes, band intensity relative to control = 100
Experimental: as §1, §2
The mouse hepatocyte line (Hepa 1-6) was seeded in a 25-cm^2 flask, and cultured in DMEM (+10% FBS, +antimicrobial agent) at 37° C. for 1 to 2 days. When the culture has become subconfluent, the medium was removed. After washed with PBS(−),DMEM(−FBS)was added as a replacement medium, followed by further culture for 1 day. […]
After the concentration of the proteins in supernatant was measured, it was adjusted such that the protein concentration became identical among the samples. […]
A predetermined amount (about 20 to 40 μg) of the sample for electrophoresis was subjected to SDS-PAGE (4 or 12% gel). After transferred onto a membrane, phospho-AMPK α (Thr72), phospho-AMPK β (Ser108) and phospho-ACC (Ser79) were detected using an anti-phospho-AMPK α antibody (product of Cell Signaling Technology, Inc.), an anti-phospho-AMPK β antibody (product of Cell Signaling Technology, Inc.) or an anti-phospho-ACC antibody (product of Cell Signaling Technology, Inc.) as a primary antibody, an anti-rabbit-HRP antibody (product of Amersham Biosciences, Inc.) as a secondary antibody, and a phototope-HRP Western detection system (product of Cell Signaling Technology, Inc.) as a detection reagent. […]

phospho-ACC (Ser79) = test: AMPK activation in Hepa 1-6 cells, phospho-ACC Western blot; conditions: 60 minutes, band intensity relative to control = 100
Experimental: The mouse hepatocyte line (Hepa 1-6) was seeded in a 25-cm^2 flask, and cultured in DMEM (+10% FBS, +antimicrobial agent) at 37° C. for 1 to 2 days. When the culture has become subconfluent, the medium was removed. After washed with PBS(−),DMEM(−FBS)was added as a replacement medium, followed by further culture for 1 day. Subsequent to removal of the medium, DMEM (−FBS) with catechins and a tea extract added at predetermined concentrations therein was added, followed by culture for 60 minutes. […]
A predetermined amount (about 20 to 40 μg) of the sample for electrophoresis was subjected to SDS-PAGE (4 or 12% gel). […] The intensities of detected bands were converted into numerical values (pixels) by an image analysis (“EDAS 290 Image Analysis System”, Kodak Company). […]

Row | Molecule | Phospho-AMPK α (phospho-AMPK α (Thr72); Table 4, 150 μM) | AMPK-activating effect (summary in words) (phospho-AMPK α (Thr72)) | other results
1 | Oc1cc(O)c2c(c1)O[C@H](c1ccc(O)c(O)c1)[C@H](O)C2 [Epicatechin] | 246 | – | –
2 | O=C(O[C@@H]1Cc2c(O)cc(O)cc2O[C@@H]1c1ccc(O)c(O)c1)c1cc(O)c(O)c(O)c1 [Epicatechingallate] | 256 | – | –
3 | Oc1cc(O)c2c(c1)O[C@H](c1cc(O)c(O)c(O)c1)[C@H](O)C2 [Epigallocatechin] | 435 | excellent AMPK-activating effect | –
4 | O=C(O[C@@H]1Cc2c(O)cc(O)cc2O[C@@H]1c1cc(O)c(O)c(O)c1)c1cc(O)c(O)c(O)c1 [Epigallocatechingallate] | 1085 | excellent AMPK-activating effect | Phospho-AMPK α (phospho-AMPK α (Thr72); Table 5, 100 μM): 198; Phospho-AMPK α (phospho-AMPK α (Thr72); Table 5, 150 μM): 261; Phospho-AMPK β (phospho-AMPK β (Ser108); Table 5, 100 μM): 120; Phospho-AMPK β (phospho-AMPK β (Ser108); Table 5, 150 μM): 149; Phospho-ACC (phospho-ACC (Ser79); Table 5, 100 μM): 220; Phospho-ACC (phospho-ACC (Ser79); Table 5, 150 μM): 304
5 | Oc1cc(O)c2c(c1)O[C@H](c1cc(O)c(O)c(O)c1)[C@@H](O)C2 [Gallocatechin] | 451 | excellent AMPK-activating effect | –
6 | O=C(O[C@@H]1Cc2c(O)cc(O)cc2O[C@H]1c1cc(O)c(O)c(O)c1)c1cc(O)c(O)c(O)c1 [Gallocatechingallate] | 1124 | excellent AMPK-activating effect | –
7 | Catechin | 78 | – | –
8 | Catechingallate | 369 | – | –
